Our source for the IC50 values is US9994558B2, “Multicyclic compounds and methods of using same” (Karyopharm Therapeutics Inc., priority 2013, dated 2018).

Holding throughout (format): cell-based
One experiment concerns 3T3 cells. The experiment is described as follows: MTT cell proliferation assay, 3T3 cells. As to conditions: Mus musculus, NIH3T3; 3T3 fibroblast cells; incubation approximately 64-72 hours. The protocol: (§1) The MTT cell proliferation assay was used to study the cytotoxic properties of the compounds. The assay was performed according to the method described by Roche Molecular Biochemicals, with minor modifications. The assay is based on the cleavage of the tetrazolium salt, MTT, in the presence of an electron-coupling reagent. The water-insoluble formazan salt produced must be solubilized in an additional step. Cells grown in a 96-well tissue culture plate were incubated with the MTT solution for approximately 4 hours. After this incubation period, a water-insoluble formazan dye formed. After solubilization, the formazan dye was quantitated using a scanning multi-well spectrophotometer (ELISA reader). […] The cells were seeded at 5,000-10,000 cells in each well of 96-well plate in 100 μL of fresh culture medium and were allowed to attach overnight. The stock solutions of the compounds were diluted in 100 μL cell culture medium to obtain eight concentrations of each test compound, ranging from 1 nM to 30 μM. […] All optical densities were measured at 490 nm using a Vmax Kinetic Microplate Reader (Molecular Devices). In most cases, the assay was performed in duplicate and the results were presented as a mean percent inhibition to the negative control±SE. The following formula was used to calculate the percent of inhibition. Inhibition (%)=(1−(ODo/OD))×100.
(§2) The compounds were tested against MS751, Z138 and 3T3 cells. The MS751 cell line is derived from a metastasis to lymph node of human cervix from a patient diagnosed with squameous cell carcinoma of the cervix. The […] cell line is a mature B-cell acute lymphoblastic leukemia cell line derived from a patient with chronic lymphocytic leukemia. 3T3 cells are standard fibroblast cells; they were originally isolated from Swiss mouse embryo tissue.

Another experiment concerns Z138 cells. The experiment is described as follows: MTT cell proliferation assay, Z138 cells. As to conditions: Homo sapiens, Z-138, incubation approximately 64-72 hours. The protocol: as §1, §2
On the technique in general: Tetrazolium dyes change colour on reduction, which living cells bring about.

The test system of another experiment is MS751 cells. The experiment is described as follows: MTT cell proliferation assay, MS751 cells. As to conditions: Homo sapiens, incubation approximately 64-72 hours. The protocol:
as §1, §2

Broadly, the IC50 is the concentration needed to halve the response being measured. Turning to `CC(CCOc1cc(-c2ccc(C(=O)N3CCC(F)(F)CC3)cn2)cc(C(F)(F)F)c1)NC(=O)/C=C/c1ccc(N)nc1` (stereo not drawn) [Compound 352, (E)-3-(6-aminopyridin-3-yl)-N-(4-(3-(5-(4,4-difluoropiperidine-1-carbonyl)pyridin-2-yl)-5-(trifluoromethyl)phenoxy)butan-2-yl)acrylamide], the IC50 in the experiment with 3T3 cells is > 10 µM; in the experiment with Z138 cells it was 0.1 to 5 µM; with MS751 cells, 0.1 to 5 µM.
For `Nc1ccc(/C=C/C(=O)NCCOc2cc(Cl)cc(-c3ccc(C(=O)N4CCOCC4)cc3)c2)cn1` [Compound 344, (E)-3-(6-aminopyridin-3-yl)-N-(2-(5-chloro-4′-(morpholine-4-carbonyl)biphenyl-3-yloxy)ethyl)acrylamide], the IC50 in the experiment with 3T3 cells is 0.1 to 5 µM; with Z138 cells, < 0.1 µM; in the experiment on MS751 cells, < 0.1 µM.
With `Nc1ccc(/C=C/C(=O)NCCOc2ccc(-c3ccc(C(=O)N4CCNCC4)cc3)cc2Cl)cn1` [Compound 326, (E)-3-(6-aminopyridin-3-yl)-N-(2-(3-chloro-4′-(piperazine-1-carbonyl)biphenyl-4-yloxy)ethyl)acrylamide], the IC50 is 0.1 to 5 µM with 3T3 cells, < 0.1 µM in the experiment with Z138 cells and < 0.1 µM in the experiment with MS751 cells.
Take `CC(C)(O)c1ccc(-c2ccc(OCCNC(=O)/C=C/c3ccc(N)nc3)c(Cl)c2)s1` [Compound 319, (E)-3-(6-aminopyridin-3-yl)-N-(2-(2-chloro-4-(5-(2-hydroxypropan-2-yl)thiophen-2-yl)phenoxy)ethyl)acrylamide]: the IC50 in the experiment with 3T3 cells was > 10 µM; in the experiment with Z138 cells, 0.1 to 5 µM; with MS751 cells, 0.1 to 5 µM.
`CN1CCN(C(=O)c2ccc(-c3ccc(OCCNC(=O)/C=C/c4ccc(N)nc4)c(Cl)c3)cc2)CC1` [Compound 313, (E)-3-(6-aminopyridin-3-yl)-N-(2-(3-chloro-4′-(4-methylpiperazine-1-carbonyl)biphenyl-4-yloxy)ethyl)acrylamide]: the IC50 with 3T3 cells is 0.1 to 5 µM; with Z138 cells, < 0.1 µM; in the experiment with MS751 cells, < 0.1 µM.
Turning to `Cc1cc(-c2ccc(OCCNC(=O)/C=C/c3ccc(N)nc3)c(Cl)c2)ccc1C(=O)N1CCOCC1` [Compound 314, (E)-3-(6-aminopyridin-3-yl)-N-(2-(3-chloro-3′-methyl-4′-(morpholine-4-carbonyl)biphenyl-4-yloxy)ethyl)acrylamide], the values for the 50% inhibitory concentration (IC50) in the experiment with 3T3 cells, with Z138 cells and in the experiment on MS751 cells were 0.1 to 5 µM, < 0.1 µM and < 0.1 µM, respectively.
Take `CC(C)(CNC(=O)/C=C/c1ccc(N)nc1)Oc1cc(Cl)cc(-c2ccc(C(=O)N3CCOCC3)cc2)c1` [Compound 347, (E)-3-(6-aminopyridin-3-yl)-N-(2-(5-chloro-4′-(morpholine-4-carbonyl)biphenyl-3-yloxy)-2-methylpropyl)acrylamide]: the IC50 is > 10 µM in the experiment on 3T3 cells, < 0.1 µM with Z138 cells and 0.1 to 5 µM in the experiment with MS751 cells.
Taken in the same sequence, the figures for `CC(=O)c1ccc(-c2ccc(OCCNC(=O)/C=C/c3cccnc3C)c(Cl)c2)s1` [Compound 305, (E)-N-(2-(4-(5-acetylthiophen-2-yl)-2-chlorophenoxy)ethyl)-3-(2-methylpyridin-3-yl) acrylamide] were > 10 µM, > 10 µM and > 10 µM.
On to `CC(=O)c1ccc(-c2ccc(OCCNC(=O)CCc3cccnc3)c(Cl)c2)s1` [Compound 306, N-(2-(4-(5-acetylthiophen-2-yl)-2-chlorophenoxy)ethyl)-3-(pyridin-3-yl)propanamide], for which the figures for the IC50 in the experiment on 3T3 cells, in the experiment with Z138 cells and in the experiment with MS751 cells were > 10 µM, > 10 µM and 5 to 10 µM, respectively.
Turning to `Nc1ccc(/C=C/C(=O)NCCOc2ccc(-c3ccc(C(=O)N4CC(F)(F)C4)cc3)cc2C(F)(F)F)cn1` [Compound 338, (E)-3-(6-aminopyridin-3-yl)-N-(2-(4′-(3,3-difluoroazetidine-1-carbonyl)-3-(trifluoromethyl)biphenyl-4-yloxy)ethyl)acrylamide], the IC50 in the experiment on 3T3 cells, with Z138 cells and in the experiment with MS751 cells was < 0.1 µM in each case.
Turning to `CC1(C)COCCN1C(=O)c1ccc(-c2ccc(OCCNC(=O)/C=C/c3ccc(N)nc3)c(Cl)c2)cc1` [Compound 335, (E)-3-(6-aminopyridin-3-yl)-N-(2-(3-chloro-4′-(3,3-dimethylmorpholine-4-carbonyl)biphenyl-4-yloxy)ethyl)acrylamide], the IC50 is 0.1 to 5 µM in the experiment on 3T3 cells, < 0.1 µM in the experiment with Z138 cells and < 0.1 µM in the experiment with MS751 cells.
For the compound `CC(=O)c1ccc(-c2ccc(Cl)c(OCCNC(=O)/C=C/c3cccnc3)c2)s1` [Compound 303, (E)-N-(2-(5-(5-acetylthiophen-2-yl)-2-chlorophenoxy)ethyl)-3-(pyridin-3-yl)acrylamide], the IC50 is > 10 µM with 3T3 cells, 0.1 to 5 µM with Z138 cells and 0.1 to 5 µM in the experiment on MS751 cells.
On to `Nc1ccc(/C=C/C(=O)NCCCOc2ccc(-c3ccc(C(=O)N4CC(F)(F)C4)cc3)cc2Cl)cn1` [Compound 336, (E)-3-(6-aminopyridin-3-yl)-N-(3-(3-chloro-4′-(3,3-difluoroazetidine-1-carbonyl)biphenyl-4-yloxy)propyl)acrylamide], for which the IC50 was 0.1 to 5 µM with 3T3 cells, < 0.1 µM with Z138 cells and < 0.1 µM in the experiment on MS751 cells.
As to `Nc1ccc(/C=C/C(=O)NCCOc2cc(Cl)cc(-c3ccc(C(=O)N4CC(F)(F)C4)cc3)c2)cn1` [Compound 332, (E)-3-(6-aminopyridin-3-yl)-N-(2-(5-chloro-4′-(3,3-difluoroazetidine-1-carbonyl)biphenyl-3-yloxy)ethyl)acrylamide], the values for the IC50 in the experiment with 3T3 cells, with Z138 cells and in the experiment on MS751 cells were 0.1 to 5 µM, < 0.1 µM and < 0.1 µM, respectively.
`CC(=O)c1ccc(-c2ccc(NCCNC(=O)/C=C/c3cccnc3)c(Cl)c2)s1` [Compound 322, (E)-N-(2-(4-(5-acetylthiophen-2-yl)-2-chlorophenylamino)ethyl)-3-(pyridin-3-yl)acrylamide]: the values for the IC50 with 3T3 cells, in the experiment on Z138 cells and with MS751 cells were > 10 µM, 0.1 to 5 µM and 0.1 to 5 µM, respectively.
On to `CC(=O)c1ccc(-c2ccc(OC(C)(C)CNC(=O)/C=C/c3cccnc3)c(Cl)c2)s1` [Compound 323, (E)-N-(2-(4-(5-acetylthiophen-2-yl)-2-chlorophenoxy)-2-methylpropyl)-3-(pyridin-3-yl)acrylamide], for which the figures for the IC50 in the experiment with 3T3 cells, in the experiment on Z138 cells and with MS751 cells were > 10 µM, 0.1 to 5 µM and 5 to 10 µM, respectively.
Taken in the same sequence, the figures for `[2H]C([2H])(CNC(=O)/C=C/c1ccc(N)nc1)Oc1ccc(-c2ccc(C(=O)N3CCOCC3)cc2)cc1Cl` [Compound 342, (E)-3-(6-aminopyridin-3-yl)-N-(2,2-dideutero-2-(3-chloro-4′-(morpholine-4-carbonyl)biphenyl-4-yloxy)ethyl)acrylamide] were 0.1 to 5 µM, < 0.1 µM and < 0.1 µM.
For `Nc1ccc(CNC(=O)/C=C\COc2ccc(-c3ccc(C(=O)N4CCC(F)(F)CC4)cn3)cc2C(F)(F)F)cn1` [Compound 354, (Z)—N-((6-aminopyridin-3-yl)methyl)-4-(4-(5-(4,4-difluoropiperidine-1-carbonyl)pyridin-2-yl)-2-(trifluoromethyl)phenoxy)but-2-enamide], the IC50 in the experiment on 3T3 cells, in the experiment on Z138 cells and in the experiment with MS751 cells was > 10 µM in each case.
On to `CC(=O)c1ccc(-c2cnc(OCCNC(=O)/C=C/c3ccc(N)nc3)c(Cl)c2)s1` [Compound 331, (E)-N-(2-(5-(5-acetylthiophen-2-yl)-3-chloropyridin-2-yloxy)ethyl)-3-(6-aminopyridin-3-yl)acrylamide], for which the IC50 with 3T3 cells, in the experiment with Z138 cells and in the experiment on MS751 cells was > 10 µM throughout.
Take `CC(=O)c1ccc(-c2ccc(OCCNC(=O)C#Cc3cccnc3)c(Cl)c2)s1` [Compound 309, N-(2-(4-(5-acetylthiophen-2-yl)-2-chlorophenoxy)ethyl)-3-(pyridin-3-yl)propiolamide]: the IC50 in the experiment with 3T3 cells, with Z138 cells and with MS751 cells was > 10 µM in each case.
Regarding `CC(=O)c1ccc(-c2ccc(OCCNC(=O)/C=C/c3cccnn3)c(Cl)c2)s1` [Compound 310, (E)-N-(2-(4-(5-acetylthiophen-2-yl)-2-chlorophenoxy)ethyl)-3-(pyridazin-3-yl)acrylamide], the IC50 in the experiment with 3T3 cells, in the experiment on Z138 cells and with MS751 cells was > 10 µM each time.
For `Nc1ccc(/C=C/C(=O)NCCOc2ccc(-c3ccc(C(=O)N4CCOCC4)cc3)cc2Cl)cn1` [Compound 316, (E)-3-(6-aminopyridin-3-yl)-N-(2-(3-chloro-4′-(morpholine-4-carbonyl)biphenyl-4-yloxy)ethyl)acrylamide], the IC50 in the experiment on 3T3 cells is 0.1 to 5 µM; in the experiment with Z138 cells it was < 0.1 µM; in the experiment with MS751 cells, < 0.1 µM.
Turning to `CC(=O)c1ccc(-c2ccc(OCCNC(=O)/C=C\c3cccnc3)c(Cl)c2)s1` [Compound 327, (Z)—N-(2-(4-(5-acetylthiophen-2-yl)-2-chlorophenoxy)ethyl)-3-(pyridin-3-yl)acrylamide], the IC50 in the experiment on 3T3 cells was > 10 µM; with Z138 cells, 0.1 to 5 µM; in the experiment on MS751 cells, 5 to 10 µM.
